Test results taken from US9085576B2 (AMGEN INC., priority 2013, dated 2015).

How the values were obtained:
[1] = biological target: Beta Secretase enzyme (BACE) (Homo sapiens (Human), UniProt P56817); assay: In vitro enzymatic BACE FRET assay; assay type: biochemical; conditions: read-out: BACE1 Enzyme assay IC50
Cathepsin D (Cat D) = Cathepsin D (Cat D) (Homo sapiens (Human), UniProt P07339); assay: In vitro enzymatic Cathepsin D (Cat D) FRET assay; assay type: biochemical; conditions: read-out: CatD IC50
BACE = BACE (Homo sapiens (Human), UniProt P56817); assay: In vitro BACE cell-based assay (Aβ40 in conditioned medium, sandwich ELISA)
Sequence of BACE (P56817 46-501, species assumed): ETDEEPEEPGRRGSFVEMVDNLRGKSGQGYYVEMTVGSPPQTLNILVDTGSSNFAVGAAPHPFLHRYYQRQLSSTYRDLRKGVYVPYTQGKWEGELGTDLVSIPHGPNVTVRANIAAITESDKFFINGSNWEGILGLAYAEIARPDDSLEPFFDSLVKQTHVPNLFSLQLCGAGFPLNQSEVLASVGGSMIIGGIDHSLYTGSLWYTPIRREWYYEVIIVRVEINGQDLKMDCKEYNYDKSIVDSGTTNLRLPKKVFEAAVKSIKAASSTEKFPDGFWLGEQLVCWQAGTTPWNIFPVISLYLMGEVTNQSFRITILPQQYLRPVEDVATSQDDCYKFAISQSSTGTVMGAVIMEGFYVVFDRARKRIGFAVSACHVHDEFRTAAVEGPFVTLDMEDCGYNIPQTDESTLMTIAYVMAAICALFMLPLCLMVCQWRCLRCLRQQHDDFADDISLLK

Sequence of Beta Secretase enzyme (BACE) (P56817 46-501): as the sequence (P56817 46-501, species assumed) above
Sequence of Cathepsin D (Cat D) (P07339 65-412, species assumed): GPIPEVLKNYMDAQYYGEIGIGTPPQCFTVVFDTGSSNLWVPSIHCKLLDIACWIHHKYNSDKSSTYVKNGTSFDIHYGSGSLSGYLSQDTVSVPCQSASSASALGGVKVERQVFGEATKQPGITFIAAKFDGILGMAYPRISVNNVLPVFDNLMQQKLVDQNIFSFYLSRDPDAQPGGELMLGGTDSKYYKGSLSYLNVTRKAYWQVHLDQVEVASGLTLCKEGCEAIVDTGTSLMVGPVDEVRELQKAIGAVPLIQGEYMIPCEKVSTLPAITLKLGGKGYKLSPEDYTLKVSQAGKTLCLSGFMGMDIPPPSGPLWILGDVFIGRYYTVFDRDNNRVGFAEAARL

Compound | IC50 [1] [µM] | IC50 (Cathepsin D (Cat D)) [µM] | IC50 (BACE) [µM]
N#Cc1ccc(C(=O)Nc2cnc(F)c([C@@]3(CF)N=C(N)O[C@@H]4C[C@@H]43)c2)nc1 [Example 204, N-(5-((1R,5S,6R)-3-amino-5-(fluoromethyl)-2-oxa-4-azabicyclo[4.1.0]hept-3-en-5-yl)-6-fluoropyridin-3-yl)-5-cyanopicolinamide] | 0.145 | 294 | 0.0335
C#CCOc1cnc(C(=O)Nc2cnc(F)c([C@@]3(CF)N=C(N)O[C@@H]4C[C@@H]43)c2)cn1 [Example 206, N-(5-((1R,5S,6R)-3-amino-5-(fluoromethyl)-2-oxa-4-azabicyclo[4.1.0]hept-3-en-5-yl)-6-fluoropyridin-3-yl)-5-(prop-2-yn-1-yloxy)pyrazine-2-carboxamide] | 0.0094 | 311 | 0.0064
NC1=N[C@](CF)(c2cc(NC(=O)c3nn(C(F)F)cc3Cl)cnc2F)[C@H]2C[C@H]2O1 [Example 207, N-(5-((1R,5S,6R)-3-amino-5-(fluoromethyl)-2-oxa-4-azabicyclo[4.1.0]hept-3-en-5-yl)-6-fluoropyridin-3-yl)-4-chloro-1-(difluoromethyl)-1H-pyrazole-3-carboxamide] | 0.0578 | 370 | 0.0176
NC1=N[C@@](c2cc(NC(=O)c3ncc(Cl)cc3Cl)ccc2Cl)(C(F)F)[C@H]2C[C@H]2O1 [Example 211, N-(3-((1R,5S,6R)-3-amino-5-(difluoromethyl)-2-oxa-4-azabicyclo[4.1.0]hept-3-en-5-yl)-4-chlorophenyl)-3,5-dichloropicolinamide] | 0.0126 | > 400 | 0.0147
Cc1cc(OC(F)F)cnc1C(=O)Nc1ccc(Cl)c([C@@]2(C(F)F)N=C(N)O[C@@H]3C[C@@H]32)c1 [Example 212, N-(3-((1R,5S,6R)-3-amino-5-(difluoromethyl)-2-oxa-4-azabicyclo[4.1.0]hept-3-en-5-yl)-4-chlorophenyl)-5-(difluoromethoxy)-3-methylpicolinamide] | 0.0469 | 928 | 0.0385
Cc1cc(OC(F)F)cnc1C(=O)Nc1ccc(Cl)c([C@]2(C(F)F)N=C(N)O[C@H]3C[C@H]32)c1 [Example 213, N-(3-((1S,5R,6S)-3-amino-5-(difluoromethyl)-2-oxa-4-azabicyclo[4.1.0]hept-3-en-5-yl)-4-chlorophenyl)-5-(difluoromethoxy)-3-methylpicolinamide] | 2.42 | 1130 | 1.31
NC1=N[C@@](c2cc(NC(=O)c3ccc(Br)cn3)ccc2Cl)(C(F)F)[C@H]2C[C@H]2O1 [Example 214, N-(3-((1R,5S,6R)-3-amino-5-(difluoromethyl)-2-oxa-4-azabicyclo[4.1.0]hept-3-en-5-yl)-4-chlorophenyl)-5-bromopicolinamide] | 0.0093 | 459 | 0.0132
CC#CCOc1cnc(C(=O)Nc2ccc(Cl)c([C@@]3(C(F)F)N=C(N)O[C@@H]4C[C@@H]43)c2)cn1 [Example 215, N-(3-((1R,5S,6R)-3-amino-5-(difluoromethyl)-2-oxa-4-azabicyclo[4.1.0]hept-3-en-5-yl)-4-chlorophenyl)-5-(but-2-yn-1-yloxy)pyrazine-2-carboxamide] | 0.0017 | 1930 | 0.0043
Cc1cc(C(F)(F)F)cnc1C(=O)Nc1ccc(Cl)c([C@@]2(C(F)F)N=C(N)O[C@@H]3C[C@@H]32)c1 [Example 217, N-(3-((1R,5S,6R)-3-amino-5-(difluoromethyl)-2-oxa-4-azabicyclo[4.1.0]hept-3-en-5-yl)-4-chlorophenyl)-3-methyl-5-(trifluoromethyl) picolinamide] | 0.0151 | 206 | 0.0116
C#CCOc1cnc(C(=O)Nc2ccc(Cl)c([C@@]3(C(F)F)N=C(N)O[C@@H]4C[C@@H]43)c2)cn1 [Example 221, N-(3-((1R,5S,6R)-3-amino-5-(difluoromethyl)-2-oxa-4-azabicyclo[4.1.0]hept-3-en-5-yl)-4-chlorophenyl)-5-(prop-2-yn-1-yloxy)pyrazine-2-carboxamide] | 0.0027 | 51.1 | 0.0033
Cc1cc(C#N)cnc1C(=O)Nc1ccc(Cl)c([C@@]2(C(F)F)N=C(N)O[C@@H]3C[C@@H]32)c1 [Example 223, N-(3-((1R,5S,6R)-3-amino-5-(difluoromethyl)-2-oxa-4-azabicyclo[4.1.0]hept-3-en-5-yl)-4-chlorophenyl)-5-cyano-3-methylpicolinamide] | 0.0184 | 541 | 0.0314
NC1=N[C@@](c2cc(NC(=O)c3nn(C(F)F)cc3Cl)ccc2Cl)(C(F)F)[C@H]2C[C@H]2O1 [Example 224, N-(3-((1R,5S,6R)-3-amino-5-(difluoromethyl)-2-oxa-4-azabicyclo[4.1.0]hept-3-en-5-yl)-4-chlorophenyl)-4-chloro-1-(difluoromethyl)-1H-pyrazole-3-carboxamide] | 0.0105 | 510 | 0.0252
COc1cnc(C(=O)Nc2ccc(Cl)c([C@@]3(C(F)F)N=C(N)O[C@@H]4C[C@@H]43)c2)cn1 [Example 226, N-(3-((1R,5S,6R)-3-amino-5-(difluoromethyl)-2-oxa-4-azabicyclo[4.1.0]hept-3-en-5-yl)-4-chlorophenyl)-5-methoxypyrazine-2-carboxamide] | 0.0895 | 363 | 0.0394
NC1=N[C@@](CF)(c2cc(NC(=O)c3ccc(Cl)cn3)cnc2F)[C@@H]2C[C@@H]2O1 [Example 230, N-(5-((1S,5R,6S)-3-amino-5-(fluoromethyl)-2-oxa-4-azabicyclo[4.1.0]hept-3-en-5-yl)-6-fluoropyridin-3-yl)-5-chloropicolinamide] | 12 | > 400 | 2.23
NC1=N[C@](CF)(c2cc(NC(=O)c3ccc(Cl)cn3)cnc2F)[C@H]2C[C@H]2O1 [Example 231, N-(5-((1R,5S,6R)-3-amino-5-(fluoromethyl)-2-oxa-4-azabicyclo[4.1.0]hept-3-en-5-yl)-6-fluoropyridin-3-yl)-5-chloropicolinamide] | 0.165 | 390 | 0.0277
C#CCOc1ccc(C(=O)Nc2ccc(F)c([C@@]3(C(F)F)N=C(N)O[C@@H]4C[C@@H]43)c2)nc1 [Example 232, N-(3-((1R,5S,6R)-3-amino-5-(difluoromethyl)-2-oxa-4-azabicyclo[4.1.0]hept-3-en-5-yl)-4-fluorophenyl)-5-(prop-2-yn-1-yloxy)picolinamide] | 0.0164 | 588 | 0.0418

The remaining lines, values ahead:

IC50 [1] [µM] | IC50 (Cathepsin D (Cat D)) [µM] | IC50 (BACE) [µM] | Compound
0.0057 | 244 | 0.024 | CC#CCOc1ccc(C(=O)Nc2ccc(F)c([C@@]3(C(F)F)N=C(N)O[C@@H]4C[C@@H]43)c2)nc1 [Example 233, N-(3-((1R,5S,6R)-3-amino-5-(difluoromethyl)-2-oxa-4-azabicyclo[4.1.0]hept-3-en-5-yl)-4-fluorophenyl)-5-(but-2-yn-1-yloxy)picolinamide]
0.283 | > 14.8 | 0.0596 | Cc1cc(C(F)F)cnc1C(=O)Nc1cnc(F)c([C@@]2(CF)N=C(N)O[C@@H]3C[C@@H]32)c1 [Example 234, N-(5-((1R,5S,6R)-3-amino-5-(fluoromethyl)-2-oxa-4-azabicyclo[4.1.0]hept-3-en-5-yl)-6-fluoropyridin-3-yl)-5-(difluoromethyl)-3-methylpicolinamide]
0.126 | 1810 | 0.0188 | NC1=N[C@](CF)(c2cc(NC(=O)c3ccc(Br)cn3)cnc2F)[C@H]2C[C@H]2O1 [Example 235, N-(5-((1R,5S,6R)-3-amino-5-(fluoromethyl)-2-oxa-4-azabicyclo[4.1.0]hept-3-en-5-yl)-6-fluoropyridin-3-yl)-5-bromopicolinamide]
0.104 | 4250 | 0.296 | NC1=N[C@@](c2cc(NC(=O)c3ccc(OCC(F)(F)F)cn3)ccc2F)(C(F)F)[C@H]2C[C@H]2O1 [Example 236, N-(3-((1R,5S,6R)-3-amino-5-(difluoromethyl)-2-oxa-4-azabicyclo[4.1.0]hept-3-en-5-yl)-4-fluorophenyl)-5-(2,2,2-trifluoroethoxy) picolinamide]
> 40 | > 400 | > 15.6 | NC1=N[C@@](c2cc(NC(=O)C3CCCCC3)ccc2F)(C(F)F)[C@H]2C[C@H]2O1 [Example 239, N-(3-((1R,5S,6R)-3-amino-5-(difluoromethyl)-2-oxa-4-azabicyclo[4.1.0]hept-3-en-5-yl)-4-fluorophenyl) cyclohexanecarboxamide]
0.821 | 48.1 | 0.712 | COCC(=O)Nc1ccc(F)c([C@@]2(C(F)F)N=C(N)O[C@@H]3C[C@@H]32)c1 [Example 240, N-(3-((1R,5S,6R)-3-amino-5-(difluoromethyl)-2-oxa-4-azabicyclo[4.1.0]hept-3-en-5-yl)-4-fluorophenyl)-2-methoxyacetamide]
> 40 | > 400 | > 15.6 | NC1=N[C@@](c2cc(NC(=O)CC3CCCCC3)ccc2F)(C(F)F)[C@H]2C[C@H]2O1 [Example 241, N-(3-((1R,5S,6R)-3-amino-5-(difluoromethyl)-2-oxa-4-azabicyclo[4.1.0]hept-3-en-5-yl)-4-fluorophenyl)-2-cyclohexylacetamide]
> 40 | 1910 | > 15.6 | NC1=N[C@@](c2cc(NC(=O)C3CCOCC3)ccc2F)(C(F)F)[C@H]2C[C@H]2O1 [Example 242]
24.4 | 1030 | 4.07 | NC1=N[C@@](c2cc(NC(=O)C3=CCCCC3)ccc2F)(C(F)F)[C@H]2C[C@H]2O1 [Example 243, N-(3-((1R,5S,6R)-3-amino-5-(difluoromethyl)-2-oxa-4-azabicyclo[4.1.0]hept-3-en-5-yl)-4-fluorophenyl)cyclohex-1-enecarboxamide]
